Measurements from ChEMBL document CHEMBL1275397, “Effects on molecular conformation and anticoagulant activities of 1,6-anhydrosugars at the reducing terminal of antithrombin-binding octasaccharides isolated from low-molecular-weight heparin enoxaparin” (J Med Chem, 2010).

Assays:
[1] = Binding affinity to human antithrombin in HEPES buffer containing 0.50 M sodium chloride assessed as increase of serpin intrinsic fluorescence by fluorospectrophotometric analysis
[2] = Binding affinity to human antithrombin in HEPES buffer containing 0.1 M sodium chloride assessed as increase of serpin intrinsic fluorescence by fluorospectrophotometric analysis
[3] = target: Coagulation factor X (Homo sapiens) (UniProt P00742); test: Inhibition of factor 10a in human plasma assessed as specific activity of enzyme; assay type: cell-free
Coagulation factor X (Homo sapiens), sequence (P00742 41-179 limits assumed): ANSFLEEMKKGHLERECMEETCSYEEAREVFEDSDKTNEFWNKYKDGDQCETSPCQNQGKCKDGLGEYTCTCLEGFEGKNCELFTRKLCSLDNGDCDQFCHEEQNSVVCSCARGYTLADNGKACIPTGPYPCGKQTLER
Coagulation factor X (Homo sapiens), sequence (P00742 235-488 limits assumed): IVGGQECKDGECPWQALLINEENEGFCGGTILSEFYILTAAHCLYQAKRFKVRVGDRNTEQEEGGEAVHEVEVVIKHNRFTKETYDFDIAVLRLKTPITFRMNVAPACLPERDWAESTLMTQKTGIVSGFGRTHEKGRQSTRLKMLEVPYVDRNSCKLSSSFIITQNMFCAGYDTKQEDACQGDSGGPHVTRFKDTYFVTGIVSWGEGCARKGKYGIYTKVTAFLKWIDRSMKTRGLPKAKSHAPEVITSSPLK

[4] = Binding affinity to human antithrombin in HEPES buffer containing 0.25 M sodium chloride assessed as increase of serpin intrinsic fluorescence by fluorospectrophotometric analysis
[5] = target: Coagulation factor X (Homo sapiens) (UniProt P00742); test: Inhibition of factor 10a in aqueous buffer solutions assessed as specific activity of enzyme

Row | Kd [1] | Kd [2] | Activity [3] | Kd [4] | Activity [5] | SMILES
1 | 2740 nM | 120 nM |  |  |  | CC(=O)N[C@H]1[C@@H](O[C@H]2[C@H](O)[C@@H](O)[C@H](O[C@H]3[C@H](OS(=O)(=O)O)[C@@H](NS(=O)(=O)O)[C@@H](O[C@H]4[C@H](O)[C@@H](OS(=O)(=O)O)[C@H](O[C@H]5[C@H](O)[C@@H](NS(=O)(=O)O)[C@@H](O)O[C@@H]5COS(=O)(=O)O)O[C@H]4C(=O)O)O[C@@H]3COS(=O)(=O)O)O[C@@H]2C(=O)O)O[C@H](COS(=O)(=O)O)[C@@H](O[C@@H]2O[C@@H](C(=O)O)[C@@H](O[C@H]3O[C@H](COS(=O)(=O)O)[C@@H](O[C@@H]4OC(C(=O)O)=C[C@H](O)[C@H]4OS(=O)(=O)O)[C@H](O)[C@H]3NS(=O)(=O)O)[C@H](O)[C@H]2O)[C@@H]1O
2 |  | 900 nM | 49.6 U/mg | > 10000 nM | 51.4 U/mg | CC(=O)N[C@H]1[C@@H](O[C@H]2[C@H](O)[C@@H](O)[C@H](O[C@H]3[C@H](OS(=O)(=O)O)[C@@H](NS(=O)(=O)O)[C@@H](O[C@H]4[C@H](O)[C@@H](OS(=O)(=O)O)[C@H](O[C@H]5[C@H](O)[C@H](NS(=O)(=O)O)[C@H]6OC[C@H]5O6)O[C@H]4C(=O)O)O[C@@H]3COS(=O)(=O)O)O[C@@H]2C(=O)O)O[C@H](COS(=O)(=O)O)[C@@H](O[C@@H]2O[C@@H](C(=O)O)[C@@H](O[C@H]3O[C@H](COS(=O)(=O)O)[C@@H](O[C@@H]4OC(C(=O)O)=C[C@H](O)[C@H]4OS(=O)(=O)O)[C@H](O)[C@H]3NS(=O)(=O)O)[C@H](O)[C@H]2O)[C@@H]1O
3 |  | 1230 nM | 39.3 U/mg | > 10000 nM | 39.6 U/mg | CC(=O)N[C@H]1[C@@H](O[C@H]2[C@H](O)[C@@H](O)[C@H](O[C@H]3[C@H](OS(=O)(=O)O)[C@@H](NS(=O)(=O)O)[C@@H](O[C@H]4[C@H](O)[C@@H](OS(=O)(=O)O)[C@H](O[C@H]5[C@H](O)[C@@H](NS(=O)(=O)O)[C@H]6OC[C@H]5O6)O[C@H]4C(=O)O)O[C@@H]3COS(=O)(=O)O)O[C@@H]2C(=O)O)O[C@H](COS(=O)(=O)O)[C@@H](O[C@@H]2O[C@@H](C(=O)O)[C@@H](O[C@H]3O[C@H](COS(=O)(=O)O)[C@@H](O[C@@H]4OC(C(=O)O)=C[C@H](O)[C@H]4OS(=O)(=O)O)[C@H](O)[C@H]3NS(=O)(=O)O)[C@H](O)[C@H]2O)[C@@H]1O
